In patent US12643910B2, “Substituted pyrazolo[3,4-b]pyridines as ectonucleotide pyrophosphatase/phosphodiesterase 1 (ENPP1) modulators” (SANFORD BURNHAM PREBYS MEDICAL DISCOVERY INSTITUTE, priority 2019, dated 2026):

What was measured:
human ENPP1 = target: T1, human ENPP1 (Homo sapiens, UniProt P22413); experiment: ENPP1 assay with ATP substrate (Transcreener AMP2/GMP2 TR-FRET); assay type: biochemical; conditions: 1 hour at room temperature
T1 construct: made in house
T1 sequence (P22413 1-925): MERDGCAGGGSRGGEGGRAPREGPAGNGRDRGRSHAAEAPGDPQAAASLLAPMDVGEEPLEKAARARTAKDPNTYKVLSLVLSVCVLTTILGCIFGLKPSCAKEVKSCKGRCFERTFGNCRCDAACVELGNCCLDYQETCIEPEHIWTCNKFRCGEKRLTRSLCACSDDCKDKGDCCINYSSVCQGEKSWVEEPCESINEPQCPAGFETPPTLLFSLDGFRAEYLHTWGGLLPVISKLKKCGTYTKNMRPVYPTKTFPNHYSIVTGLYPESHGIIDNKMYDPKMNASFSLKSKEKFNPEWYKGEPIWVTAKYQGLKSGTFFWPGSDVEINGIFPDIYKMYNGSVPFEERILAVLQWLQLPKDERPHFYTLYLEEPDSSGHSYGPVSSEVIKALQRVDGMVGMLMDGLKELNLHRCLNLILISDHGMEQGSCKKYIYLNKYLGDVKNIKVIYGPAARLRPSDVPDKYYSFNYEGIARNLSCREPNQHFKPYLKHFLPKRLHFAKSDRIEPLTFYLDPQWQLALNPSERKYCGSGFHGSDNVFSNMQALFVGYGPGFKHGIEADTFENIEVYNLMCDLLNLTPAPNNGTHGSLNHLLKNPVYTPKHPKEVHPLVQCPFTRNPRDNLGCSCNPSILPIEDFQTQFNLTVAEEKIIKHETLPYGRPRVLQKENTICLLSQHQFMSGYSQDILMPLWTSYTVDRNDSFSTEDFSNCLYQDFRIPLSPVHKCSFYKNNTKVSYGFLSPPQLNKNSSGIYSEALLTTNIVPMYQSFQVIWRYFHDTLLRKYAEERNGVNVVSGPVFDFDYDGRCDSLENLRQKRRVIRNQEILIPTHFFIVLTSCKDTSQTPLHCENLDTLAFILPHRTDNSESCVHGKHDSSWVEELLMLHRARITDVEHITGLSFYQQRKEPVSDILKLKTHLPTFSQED
Procedure, shortened: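 5′-AMP from ATP hydrolysis (300 nM ATP stock added; enzyme added as 8.5 μM stock) detected by competitive TR-FRET. Buffer: 50 mM Tris pH 7.5, 1 mM TCEP, 2 mM MgCl2, 0.005% Tween 20, 1% DMSO. Reaction 1 h at room temperature, EDTA stop. IC50 from 2-parameter variable-slope fit.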

ENPP3 = target: T2, ENPP3 (Homo sapiens, UniProt O14638); experiment: ENPP3 Km ATP assay; assay type: biochemical; conditions: ATP at Km
T2 sequence (O14638 1-875): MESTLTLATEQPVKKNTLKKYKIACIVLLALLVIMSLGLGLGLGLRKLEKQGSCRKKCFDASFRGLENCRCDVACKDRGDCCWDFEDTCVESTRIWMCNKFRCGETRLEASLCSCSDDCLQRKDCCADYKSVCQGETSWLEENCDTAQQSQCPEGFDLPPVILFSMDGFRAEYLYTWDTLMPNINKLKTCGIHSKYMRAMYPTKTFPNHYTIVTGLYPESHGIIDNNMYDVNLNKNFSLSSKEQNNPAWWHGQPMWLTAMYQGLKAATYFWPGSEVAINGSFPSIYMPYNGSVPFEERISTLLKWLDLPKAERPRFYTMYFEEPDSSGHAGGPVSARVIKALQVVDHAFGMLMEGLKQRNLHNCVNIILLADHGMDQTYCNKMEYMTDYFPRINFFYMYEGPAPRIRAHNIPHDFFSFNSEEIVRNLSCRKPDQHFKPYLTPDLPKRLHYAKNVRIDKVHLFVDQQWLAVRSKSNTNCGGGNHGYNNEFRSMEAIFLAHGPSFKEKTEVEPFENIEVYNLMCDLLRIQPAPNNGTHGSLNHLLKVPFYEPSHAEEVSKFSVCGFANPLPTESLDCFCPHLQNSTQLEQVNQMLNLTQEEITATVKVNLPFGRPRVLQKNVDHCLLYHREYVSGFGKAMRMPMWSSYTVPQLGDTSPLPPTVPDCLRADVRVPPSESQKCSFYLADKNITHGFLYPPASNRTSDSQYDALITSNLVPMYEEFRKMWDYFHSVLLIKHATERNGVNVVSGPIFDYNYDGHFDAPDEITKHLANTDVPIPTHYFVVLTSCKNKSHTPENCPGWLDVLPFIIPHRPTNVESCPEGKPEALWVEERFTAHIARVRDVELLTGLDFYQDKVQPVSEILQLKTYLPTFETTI

Cc1cccc(CCC(=O)NC2CCN(c3ncnc4c(C)csc34)CC2)c1 [Example 3.15, N-(1-(7-Methylthieno[3,2-d]pyrimidin-4-yl)piperidin-4-yl)-3-(m-tolyl)propanamide]
IC50 (human ENPP1): > 20 µM
IC50 (ENPP3): > 20 µM

Cc1ccccc1CCCNC1CCN(c2ncnc3c(C)csc23)CC1 [Example 3.16, 1-(7-Methylthieno[3,2-d]pyrimidin-4-yl)-N-(3-(o-tolyl)propyl)piperidin-4-amine]
IC50 (human ENPP1): 0.1 to 1 µM
IC50 (ENPP3): > 20 µM

Cc1cccc(CCCNC2CCN(c3ncnc4c(C)csc34)CC2)c1 [Example 3.17, 1-(7-Methylthieno[3,2-d]pyrimidin-4-yl)-N-(3-(m-tolyl)propyl)piperidin-4-amine]
IC50 (human ENPP1): 0.1 to 1 µM
IC50 (ENPP3): 1 to 20 µM

Cc1csc2c(N3CCC(NC(=O)CCc4cccc(Cl)c4)CC3)ncnc12 [Example 3.18, 3-(3-Chlorophenyl)-N-(1-(7-methylthieno[3,2-d]pyrimidin-4-Y)piperidin-4-yl)propanamide]
IC50 (human ENPP1): > 20 µM
IC50 (ENPP3): > 20 µM

Cc1csc2c(N3CCC(NCCCc4cccc(Cl)c4)CC3)ncnc12 [Example 3.19, N-(3-(3-Chlorophenyl)propyl)-1-(7-methylthieno[3,2-d]pyrimidin-4-yl)piperidin-4-amine]
IC50 (human ENPP1): 0.1 to 1 µM
IC50 (ENPP3): > 20 µM

Cc1csc2c(N3CCC(NC(=O)CCc4ccc(F)cc4)CC3)ncnc12 [Example 3.20, 3-(4-Fluorophenyl)-N-(1-(7-methylthieno[3,2-d]pyrimidin-4-yl)piperidin-4-yl)propanamide]
IC50 (human ENPP1): > 20 µM
IC50 (ENPP3): > 20 µM

Cc1csc2c(N3CCC(NC(=O)COc4ccc(F)cc4)CC3)ncnc12 [Example 3.22, 2-(4-Fluorophenoxy)-N-(1-(7-methylthieno[3,2-d]pyrimidin-4-yl)piperidin-4-yl)acetamide]
IC50 (human ENPP1): 1 to 20 µM
IC50 (ENPP3): > 20 µM

Cc1csc2c(N3CCC(NCCOc4ccc(F)cc4)CC3)ncnc12 [Example 3.23, N-(2-(4-Fluorophenoxy)ethyl)-1-(7-methylthieno[3,2-d]pyrimidin-4-yl)piperidin-4-amine]
IC50 (human ENPP1): > 20 µM
IC50 (ENPP3): > 20 µM

Cc1csc2c(N3CCC(Nc4ccncc4)CC3)ncnc12 [Example 3.24, N-(1-(7-Methylthieno[3,2-d]pyrimidin-4-yl)piperidin-4-yl)pyridin-4-amine]
IC50 (human ENPP1): 1 to 20 µM
IC50 (ENPP3): > 20 µM

Cc1csc2c(N3CCC(NCCc4ccncc4)CC3)ncnc12 [Example 3.25, 1-(7-Methylthieno[3,2-d]pyrimidin-4-yl)-N-(2-(pyridin-4-yl)ethyl)piperidin-4-amine]
IC50 (human ENPP1): 0.1 to 1 µM
IC50 (ENPP3): > 20 µM

Cc1csc2c(N3CCC(NCCCc4cccnc4)CC3)ncnc12 [Example 3.26, 1-(7-Methylthieno[3,2-d]pyrimidin-4-yl)-N-(3-(pyridin-3-yl)propyl)piperidin-4-amine]
IC50 (human ENPP1): 0.1 to 1 µM
IC50 (ENPP3): > 20 µM

Cc1csc2c(N3CCC(NCCCc4ccccc4)CC3)ncnc12 [Example 3.27, 1-(7-Methylthieno[3,2-d]pyrimidin-4-yl)-N-(3-phenylpropyl)piperidin-4-amine]
IC50 (human ENPP1): 0.1 to 1 µM
IC50 (ENPP3): > 20 µM

Cc1csc2c(N3CCC(NCCCc4ccc(Cl)cc4)CC3)ncnc12 [Example 3.28, N-(3-(4-Chlorophenyl)propyl)-1-(7-methylthieno[3,2-d]pyrimidin-4-yl)piperidin-4-amine]
IC50 (human ENPP1): < 0.1 µM
IC50 (ENPP3): > 20 µM

Cc1csc2c(N3CCC(NCCCc4ccncc4)C3)ncnc12 (stereo not drawn) [Example 3.29, 1-(7-Methylthieno[3,2-d]pyrimidin-4-yl)-N-(3-(pyridin-4-yl)propyl)pyrrolidin-3-amine]
IC50 (human ENPP1): 0.1 to 1 µM
IC50 (ENPP3): > 20 µM

Cc1cc(CCCNC2CCN(c3ncnc4c(C)csc34)CC2)ccn1 [Example 3.30, N-(3-(2-Methylpyridin-4-yl)propyl)-1-(7-methylthieno[3,2-d]pyrimidin-4-yl)piperidin-4-amine]
IC50 (human ENPP1): 0.1 to 1 µM
IC50 (ENPP3): > 20 µM

COc1ccc(CCC(=O)NC2CCN(c3ncnc4c(C)csc34)CC2)cc1 [Example 3.31, 3-(4-Methoxyphenyl)-N-(1-(7-methylthieno[3,2-d]pyrimidin-4-yl)piperidin-4-yl)propanamide]
IC50 (human ENPP1): > 20 µM
IC50 (ENPP3): > 20 µM

COc1ccc(CCCNC2CCN(c3ncnc4c(C)csc34)CC2)cc1 [Example 3.32, N-(3-(4-Methoxyphenyl)propyl)-1-(7-methylthieno[3,2-d]pyrimidin-4-yl)piperidin-4-amine]
IC50 (human ENPP1): 0.1 to 1 µM
IC50 (ENPP3): > 20 µM

Cc1csc2c(N3CCC(NCCCc4ccccc4F)CC3)ncnc12 [Example 3.33, N-(3-(2-Fluorophenyl)propyl)-1-(7-methylthieno[3,2-d]pyrimidin-4-yl)piperidin-4-amine]
IC50 (human ENPP1): 0.1 to 1 µM
IC50 (ENPP3): > 20 µM

Cc1cnccc1CCC(=O)NC1CCN(c2ncnc3c(C)csc23)CC1 [Example 3.34, 3-(3-Methylpyridin-4-yl)-N-(1-(7-methylthieno[3,2-d]pyrimidin-4-yl)piperidin-4-yl)propanamide]
IC50 (human ENPP1): > 20 µM
IC50 (ENPP3): > 20 µM

Cc1cnccc1CCCNC1CCN(c2ncnc3c(C)csc23)CC1 [Example 3.35, N-(3-(3-Methylpyridin-4-yl)propyl)-1-(7-methylthieno[3,2-d]pyrimidin-4-yl)piperidin-4-amine]
IC50 (human ENPP1): 0.1 to 1 µM
IC50 (ENPP3): > 20 µM

Cc1csc2c(N3CCC(NC(=O)CCc4ccnc(F)c4)CC3)ncnc12 [Example 3.36, 3-(2-Fluoropyridin-4-yl)-N-(1-(7-methylthieno[3,2-d]pyrimidin-4-yl)piperidin-4-yl)propanamide]
IC50 (human ENPP1): 1 to 20 µM
IC50 (ENPP3): > 20 µM

Cc1csc2c(N3CCC(NCCCc4ccnc(F)c4)CC3)ncnc12 [Example 3.37, N-(3-(2-Fluoropyridin-4-yl)propyl)-1-(7-methylthieno[3,2-d]pyrimidin-4-yl)piperidin-4-amine]
IC50 (human ENPP1): 0.1 to 1 µM
IC50 (ENPP3): > 20 µM

Cc1csc2c(N3CCC(NC(=O)CCc4ccncc4F)CC3)ncnc12 [Example 3.38, 3-(3-fluoropyridin-4-yl)-N-(1-(7-methylthieno[3,2-d]pyrimidin-4-yl)piperidin-4-yl)propanamide]
IC50 (human ENPP1): > 20 µM
IC50 (ENPP3): > 20 µM

Cc1csc2c(N3CCC(NC(=O)CCc4cccc(F)c4)CC3)ncnc12 [Example 3.39, 3-(3-Fluorophenyl)-N-(1-(7-methylthieno[3,2-d]pyrimidin-4-yl)piperidin-4-yl)propanamide]
IC50 (human ENPP1): > 20 µM
IC50 (ENPP3): > 20 µM

Cc1csc2c(N3CCC(NCCCc4ccncc4F)CC3)ncnc12 [Example 3.40, N-(3-(3-Fluoropyridin-4-yl)propyl)-1-(7-methylthieno[3,2-d]pyrimidin-4-yl)piperidin-4-amine]
IC50 (human ENPP1): 0.1 to 1 µM
IC50 (ENPP3): > 20 µM

Cc1csc2c(N3CCC(NCCCc4cccc(F)c4)CC3)ncnc12 [Example 3.41, N-(3-(3-Fluorophenyl)propyl)-1-(7-methylthieno[3,2-d]pyrimidin-4-yl)piperidin-4-amine]
IC50 (human ENPP1): 0.1 to 1 µM
IC50 (ENPP3): > 20 µM

Cc1csc2c(N3CCC(NCc4ccc(F)cc4)CC3)ncnc12 [Example 3.42, N-(4-Fluorobenzyl)-1-(7-methylthieno[3,2-d]pyrimidin-4-yl)piperidin-4-amine]
IC50 (human ENPP1): 1 to 20 µM
IC50 (ENPP3): > 20 µM
